Activity calls are given as the source filed them. The rule behind the calls is not given here.
Key:
Plasmodium berghei [1] = test: Antimalarial activity against Plasmodium berghei infected in mouse assessed as change in mean survival time at 20 mg/kg, sc administered 72 hrs post infection as single dose (reference value: 6.2 days); type: functional; settings: route subcutaneous
Plasmodium berghei [2] = test: Antimalarial activity against Plasmodium berghei infected in mouse assessed as change in mean survival time at 40 mg/kg, sc administered 72 hrs post infection as single dose (reference value: 6.2 days); type: functional; settings: route subcutaneous
Plasmodium berghei [3] = test: Antimalarial activity against Plasmodium berghei infected in mouse assessed as change in mean survival time at 80 mg/kg, sc administered 72 hrs post infection as single dose (reference value: 6.2 days); type: functional; settings: route subcutaneous
Plasmodium berghei [4] = test: Antimalarial activity against Plasmodium berghei infected in mouse assessed as cure from disease at 160 mg/kg, sc administered 72 hrs post infection as single dose measured post 60 days; type: functional, organism-based; set-up: dose 160 mg/kg
Plasmodium berghei [5] = test: Antimalarial activity against Plasmodium berghei infected in mouse assessed as cure from disease at 320 mg/kg, sc administered 72 hrs post infection as single dose measured post 60 days; type: functional, organism-based; set-up: dose 320 mg/kg
Plasmodium berghei [6] = test: Antimalarial activity against Plasmodium berghei infected in mouse assessed as change in mean survival time at 160 mg/kg, sc administered 72 hrs post infection as single dose (reference value: 6.2 days); type: functional; settings: route subcutaneous
Plasmodium berghei [7] = test: Antimalarial activity against Plasmodium berghei infected in mouse assessed as change in mean survival time at 320 mg/kg, sc administered 72 hrs post infection as single dose (reference value: 6.2 days); type: functional; settings: route subcutaneous

Row | SMILES | MST (Plasmodium berghei [1]) [days] | MST (Plasmodium berghei [2]) [days] | MST (Plasmodium berghei [3]) [days] | Activity (Plasmodium berghei [4]) | Activity (Plasmodium berghei [5]) | MST (Plasmodium berghei [6]) [days] | MST (Plasmodium berghei [7]) [days]
1 | CCCCN(CCCC)CC(O)c1cc2cc(Br)ccc2c2cc(S(C)(=O)=O)ccc12.Cl (stereo not given) | 0.6 | 1.2 | 10.8 |  |  |  | 
2 | CCCCN(CCCC)CC(O)c1cc2cc(Cl)cc(Cl)c2c2cc(SC)ccc12.Cl (stereo not given) | 10.5 |  |  | Active | Active |  | 
3 | CCCCN(CCCC)CC(O)c1cc2cc(SC)ccc2c2c(Cl)c(Cl)ccc12.Cl (stereo not given) | 9.3 | 10.7 |  |  |  |  | 
4 | CCCCN(CCCC)CC(O)c1cc2cc(S(C)(=O)=O)ccc2c2c(Cl)c(Cl)ccc12.Cl (stereo not given) | 4.7 | 7.7 | 14.9 |  | Active |  | 
5 | CCCCN(CCCC)CC(O)c1cc2cc(S(C)(=O)=O)ccc2c2cc(S(C)(=O)=O)ccc12.Cl (stereo not given) |  | 0.1 | 0.3 |  |  | 0.3 | 0.3
6 | CCCCN(CCCC)CC(O)c1cc2cc(Br)ccc2c2cc(SC)ccc12.Cl (stereo not given) | 2.8 | 8.6 | 9.5 |  |  |  | 
7 | CCCCN(CCCC)CC(O)c1cc2cc(SC)ccc2c2cc(Cl)c(Cl)cc12.Cl (stereo not given) | 9.1 | 10.3 |  | Active |  |  | 
8 | CCCCN(CCCC)CC(O)c1cc2cc(S(C)(=O)=O)ccc2c2cc(Cl)c(Cl)cc12.Cl (stereo not given) | 4.9 | 8.5 |  |  | Active |  | 
9 | CCCCN(CCCC)CC(O)c1cc2cc(SC)ccc2c2cc(SC)ccc12.Cl (stereo not given) | 0.7 | 5.9 | 11.5 |  | Active | 16.1 | 
